Laboratory results: patent publication US12491170B2, “Stable treprostinil prodrugs” (United Therapeutics Corporation, priority 2020, dated 2025)

How the values were obtained:
[1] = Stability in human subcutaneous skin homogenate; conditions: for AUC: human
Procedure: The pool of skin homogenate was prepared by combining equal volumes of three lots that were tested in the initial skin homogenate lot assessment experiments.
A stock solution of calcein-AM was first prepared at 5 mM in DMSO, followed by a serial dilution into methanol at a concentration of 100 μM. 495 μL of skin homogenate was thawed and warmed to 37° C. A 5 μL aliquot of the 100 μM calcein-AM solution was spiked into the skin homogenate, for a final calcein-AM dosing concentration of 1 μM. After briefly mixing, 150 μL aliquots were removed in triplicate and transferred to 96-well Falcon plates. The plates were placed onto a Thermomixer and maintained at 37° C., with gentle shaking for the duration of the experiment. At each time point (0, 15, 30, 60, and 120 minutes), the plate was removed from the Thermomixer and transferred to a FLUOstar® plate reader, and the formation of calcein (Sigma) was monitored by fluorescence (490/515 nm). Calibration standards of calcein were prepared in distilled water by serial dilutions of a calcein DMSO stock at final concentrations ranging from 1 μM to 1 nM. All samples and standards were read concurrently (Table 13).
For each of the test articles, 495 μL of skin homogenate was added to triplicate centrifuge tubes. To each tube, 5 μL of a 100 μM solution of test article was added, for a final test article dosing concentration of 1 μM. The tubes were placed onto a Thermomixer and maintained at 37° C. with gentle shaking for the duration of the experiment. At each time point (0, 30, 60, and 120 minutes), a 100 μL aliquot was removed from each tube and combined with 200 μL of acetonitrile to stop the stability reaction. The tubes were mixed and centrifuged at 3000 rpm for 10 minutes. Aliquots of supernatant were removed and diluted 1:1 with distilled water containing internal standard (2 μM treprostinil-d4). Calibration standards for the treprostinil analysis were prepared for each test article in a surrogate matrix (supernatant from a mixture of 1:2 human plasma:acetonitrile), at concentrations ranging from 1 μM to 1 nM. Calibration standards were also diluted 1:1 with distilled water containing internal standard. The disappearance of each individual test article was monitored, as well as the formation of treprostinil (Table 14 and Table 15).

[2] = Stability in cryopreserved hepatocytes, human
Procedure: (§1) Mixed-gender human cryopreserved hepatocytes, male Sprague-Dawley rat cryopreserved hepatocytes, and male Beagle dog cryopreserved hepatocytes were purchased from XenoTech. The hepatocytes were thawed and prepared according to the vendor's instructions, pooled into Krebs Henseleit buffer (KHB, pH 7.4), and kept on ice prior to the experiments. […] The final DMSO content in the incubation mixture was ≤0.1%. […] Aliquots of the test article were withdrawn (n=1) at 0, 15, 30, 60, and 120 minutes. […] Aliquots of 7-HC were withdrawn (n=1) at 0 and 15 minutes. The reaction was immediately terminated by adding two volumes of ice-cold acetonitrile (ACN) to the test article samples and three volumes of ACN containing internal standard to the positive control samples. The samples were then mixed and centrifuged to precipitate proteins. An aliquot of the supernatant was then diluted with water and analyzed by LC-MS/MS against calibration standards prepared in a matched matrix. […] All test article samples were analyzed for the dosed prodrugs as well as the drug, treprostinil. The test article concentration was compared to the concentration at time 0 to determine the percent of test article remaining at each time point. Half-lives and clearance values were calculated using GraphPad software, fitting to a single-phase exponential decay equation.

[3] = Stability in cryopreserved hepatocytes, dog
Procedure: as §1

[4] = Stability in cryopreserved hepatocytes, rat
Procedure: as §1

[5] = male, Beagle, dog, 15 min, 100 μM, pH 7.4
[6] = male, Sprague-Dawley, rat, 15 min, 100 μM, pH 7.4
[7] = both, human, 15 min, 100 μM, pH 7.4

In the case of `CCCCCC(CCC1C(O)CC2Cc3c(cccc3OCC(=O)O)CC21)OC(=O)OCCOC` (centres unmarked) [XL], the “Trep Concentration 0 min” value [1] is reported as 0 µM, the “Trep Concentration 30 min” value [1] is reported as 0.202 µM and the “Trep Concentration 60 min” value [1] is reported as 0.329 µM. The “Trep Concentration 120 min” value [1] was 0.59 µM and the AUC [1] was 38.57 µmol·min/L.
In the case of `C[C@]12CC[C@H]3[C@@H](CCC4=CC(=O)CC[C@@]43C)[C@@H]1CC[C@@H]2O` [Testosterone, testosterone, reference compound], the “Half-life (positive control)” value ([2]; human hepatocytes, 1 μM, control) is reported as 4.82 min.
For `CCCCCC(CCC1C(O)CC2Cc3c(cccc3OCC(=O)O)CC21)OC(=O)OCCOCCOC` (centres unmarked) [XLI], the “Trep Concentration 0 min” value [1] was 0 µM, the “Trep Concentration 30 min” value [1] was 0.0526 µM and the “Trep Concentration 60 min” value [1] was 0.091 µM. For the same compound, the “Trep Concentration 120 min” value [1] was 0.19 µM and the AUC [1] was 11.37 µmol·min/L.
For `CCCCCC(CCC1C(O)CC2Cc3c(cccc3OCC(=O)O)CC21)OCc1oc(=O)oc1C` (centres unmarked) [LI], the “Trep Concentration (μM) 0 min” value [3] was 0.0214 µM, the “Trep Concentration (μM) 15 min” value [3] was 0.627 µM and the “Trep Concentration (μM) 30 min” value [3] was 0.605 µM. For the same compound, the “Trep Concentration (μM) 60 min” value [3] was 0.537 µM, the “Trep Concentration (μM) 120 min” value [3] was 0.482 µM and the “AUC” value ([3]; dog) was 61.80 µmol·min/L. The “Trep Concentration (μM) 0 min” value [4] was 0.327 µM, the “Trep Concentration (μM) 15 min” value [4] was 0.703 µM and the “Trep Concentration (μM) 30 min” value [4] was 0.61 µM. For the same compound, the “Trep Concentration (μM) 60 min” value [4] was 0.523 µM, the “Trep Concentration (μM) 120 min” value [4] was 0.464 µM and the “AUC” value ([4]; rat) was 64.18 µmol·min/L. The “Trep Concentration (μM) 0 min” value [2] was 0.0425 µM, the “Trep Concentration (μM) 15 min” value [2] was 0.647 µM and the “Trep Concentration (μM) 30 min” value [2] was 0.626 µM. For the same compound, the “Trep Concentration (μM) 60 min” value [2] was 0.608 µM, the “Trep Concentration (μM) 120 min” value [2] was 0.55 µM and the “AUC” value ([2]; human) was 67.97 µmol·min/L.
`CCCCCC(CCC1C(O)CC2Cc3c(cccc3OCC(=O)O)CC21)OC(=O)OC` (centres unmarked) [IV 1st] showed an AUC [1] of 7.07 µmol·min/L.
With `CCCCCC(CCC1C(O)CC2Cc3c(cccc3OCC(=O)O)CC21)OC(=O)OC` (centres unmarked) [IV 2nd] the AUC [1] was 62.69 µmol·min/L.
In the case of `CCCCCC(CCC1C(O)CC2Cc3c(cccc3OCC(=O)O)CC21)OC(=O)NC` (centres unmarked) [VIII], the “Trep Concentration (μM) 0 min” value [3] is reported as 0 µM, the “Trep Concentration (μM) 15 min” value [3] is reported as 0 µM and the “Trep Concentration (μM) 30 min” value [3] is reported as 0 µM. The “Trep Concentration (μM) 60 min” value [3] was 0 µM, the “Trep Concentration (μM) 120 min” value [3] was 0 µM and the “AUC” value ([3]; dog) was 0.00 µmol·min/L. For the same compound, the “Trep Concentration 0 min” value [1] was 0 µM, the “Trep Concentration 30 min” value [1] was 0 µM and the “Trep Concentration 60 min” value [1] was 0 µM. For the same compound, the “Trep Concentration 120 min” value [1] was 0 µM, the AUC [1] was 0.00 µmol·min/L and the “Trep Concentration (μM) 0 min” value [4] was 0 µM. For the same compound, the “Trep Concentration (μM) 15 min” value [4] was 0 µM, the “Trep Concentration (μM) 30 min” value [4] was 0 µM and the “Trep Concentration (μM) 60 min” value [4] was 0.00511 µM. For the same compound, the “Trep Concentration (μM) 120 min” value [4] was 0 µM, the “AUC” value ([4]; rat) was 0.23 µmol·min/L and the “Trep Concentration (μM) 0 min” value [2] was 0 µM. For the same compound, the “Trep Concentration (μM) 15 min” value [2] was 0 µM, the “Trep Concentration (μM) 30 min” value [2] was 0 µM and the “Trep Concentration (μM) 60 min” value [2] was 0.00464 µM. For the same compound, the “Trep Concentration (μM) 120 min” value [2] was 0 µM and the “AUC” value ([2]; human) was 0.21 µmol·min/L.
For `CCCCCC(O)CCC1C(O)CC2Cc3c(cccc3OCC(=O)NCC(=O)O)CC21` (centres unmarked) [VII orig], the AUC [1] was 0.14 µmol·min/L.
Work on `CCCCCC(O)CCC1C(O)CC2Cc3c(cccc3OCC(=O)NCC(=O)O)CC21` (centres unmarked) [VII new] yielded an AUC [1] of 0.00 µmol·min/L.
In the case of `CCCCCC(CCC1C(O)CC2Cc3c(cccc3OCC(=O)O)CC21)OC(=O)CCC(=O)O` (centres unmarked) [XX new], the “Trep Concentration 0 min” value [1] is reported as 0 µM, the “Trep Concentration 30 min” value [1] is reported as 0.00878 µM and the “Trep Concentration 60 min” value [1] is reported as 0.0149 µM. The “Trep Concentration 120 min” value [1] was 0.0271 µM and the AUC [1] was 1.75 µmol·min/L.
`CCCCCC(CCC1C(O)CC2Cc3c(cccc3OCC(=O)O)CC21)OC(=O)OC` (centres unmarked) [IV 3rd] showed an AUC [1] of 9.59 µmol·min/L.
With `O=c1ccc2ccc(O)cc2o1` [7-Hydroxycoumarin, 7-hydroxycoumarin, reference compound] the “Formation Rate of 7-HC-G (glucuronide)” value [3, 5] was 114 pmol/min/10^6 cells, the “Formation Rate of 7-HC-S (sulfate)” value [3, 5] was 35.9 pmol/min/10^6 cells and the “Formation Rate of 7-HC-G (glucuronide)” value [4, 6] was 91.4 pmol/min/10^6 cells. The “Formation Rate of 7-HC-S (sulfate)” value [4, 6] was 24.7 pmol/min/10^6 cells, the “Formation Rate of 7-HC-G (glucuronide)” value [2, 7] was 97.7 pmol/min/10^6 cells and the “Formation Rate of 7-HC-S (sulfate)” value [2, 7] was 10.8 pmol/min/10^6 cells.
